Experimental data from patent US6894073B2, “Use of diterpene compound as a therapeutic agent of inflammation, immune disease or cancer” (Korea Research Institute of Bioscience and Biotechnology, priority 2000, dated 2005).

What was measured:
iNOS mRNA = iNOS mRNA expression, RT-PCR, LPS-stimulated Raw 264.7 cells; type: cell-based, murine; details: 1 μg/ml, LPS 1 μg/ml, 6 hours
Description: (§1) Raw 264.7 murine macrophage cells were treated simultaneously with 1 μg/ml concentrations of LPS and 0.1 μg/ml, 0.3 μg/ml, 1 μg/ml, and 3 μg/ml concentrations of kamebakaurin and were incubated for 6 hours at 37° C. in a 5% CO2 incubator. After isolation of total RNA, reverse transcriptase-polymerase chain reaction (RT-PCR) was performed using said RNA as a template and primer pairs represented by SEQ. ID NO. 3 and 4 for iNOS gene and primer pairs represented by SEQ. ID NO. 5 and 6 for COX-2.

Bax = Bax expression, Western blot, MCF-7 and HT-1080 cells; type: cell-based; details: 1, 5, 10 μg/ml, 20 ng/ml TNF-α 3 hours
Description: MCF-7 cells and HT-1080 cells were pretreated for 30 minutes with 1 μg/ml, 5 μg/ml, and 10 μg/ml concentrations of four kinds of kaurane diterpene compounds, respectively. After that, 20 ng/ml concentrations of TNF-α were treated for three hours to induce the expression of cIAP-1 and cIAP-2 proteins. Protein extract was prepared from cultured cells using buffer solution for protein extraction consisting of 50 mM Tris-HCL (pH 7.5), 1% Nonidet P40, 150 mM NaCl, 1 mM EDTA, 1 mM phenylmethyl sulfonyl fluoride, […]. 50 μg of protein extract of the control and compound-treated groups was applied to the SDS-polyacrylamide gel electrophoresis. After transferring the proteins into the polyvinylidene difluoride membrane, the membrane was blocked with 5% skim milk for three hours, and were reacted with antibodies against cIAP-1, cIAP-2, Bcl-2, and Bax proteins (Santa Cruz Biochemicals). The membrane was washed with PBS and was reacted with secondary antibody conjugated with horseradish peroxidase. After washing again with PBS, the protein was detected by ECL system (Amersham Pharmacia Biotec).

iNOS protein = iNOS protein expression, Western blot, LPS-stimulated Raw 264.7 cells; type: cell-based, murine; details: LPS 1 μg/ml, 18 hours
Description: Raw 264.7 murine macrophage cells were treated simultaneously with 1 μg/ml concentrations of LPS and 0.1 μg/ml, 0.3 μg/ml, 1 μg/ml, and 3 μg/ml concentrations of kamebakaurin and were incubated for 18 hours at 37° C. in a 5% CO2 incubator. After preparing total cell lysates from cultured cells using buffer solution for protein extraction of the Example <7-2>, the expression pattern of proteins was assessed by Western blot analysis.

nitric oxide (NO) = assay: Inhibition of NO production (nitrite, Griess reagent) in LPS-stimulated Raw 264.7 macrophage cells; type: cell-based, murine; details: for NO: 1 μg/ml LPS, 24 hours
Description: To investigate whether kaurane diterpene compounds obtained in Example 1 can inhibit the production of nitric oxide (NO) which induces apoptosis of the immune and neuron cells, the present inventors measured the amount of nitrite (NO2) accumulated in the culture medium of LPS-stimulated murine macrophage cells, which were treated with four kaurane diterpene compounds, kamebanin, kamebacetal A, kamebakaurin, or exisanin A.
In detail, Raw 264.7 murine macrophage cells (ATCC TIB-71) in DMEM medium were seeded to 96-well plate at a cell density of 1×10^5 cells/well and incubated for 3 hours at 37° C., 5% CO2 incubator. To induce NO synthesis in the macrophage cell, 1 μg/ml of LPS and 3 μg/ml, 0.3 μg/ml, and 0.03 μg/ml of kaurane diterpene compounds of the present invention were added to the medium and the plate was incubated for 24 hours. The amount of NO2, the final oxidation product of NO induced by the LPS in the medium was measured as followed. After collecting and centrifuging incubated medium, 100 μl of Griess reagent was added into 100 μl of each culture medium. Then, the medium was incubated for ten minutes at room temperature and absorbance at 550 nm wavelength was measured. Griess reagent was prepared by mixing a solution, wherein 1% sulfanilamide was dissolved in 5% phosphoric acid, and a solution of 0.1% naphyhylethylenediamine-HCl by a 1:1 ratio. To measure the amount of standard NO synthesis, NaNO2 was serially diluted and the absorbance was measured after reacting it with Griess reagent. From this, the standard curve for the amount of NO production was obtained. The amount of NO production in the culture medium treated with each compound was estimated using standard curve for NO determination.

COX-2 mRNA = COX-2 mRNA expression, RT-PCR, LPS-stimulated Raw 264.7 cells; type: cell-based, murine
Description: as §1

TNF-α = assay: Inhibition of TNF-α production in LPS-stimulated Raw 264.7 cells (enzyme immunometric assay); type: cell-based, murine; details: for TNF-α: 1 μg/ml LPS, 16 hours
Description: To investigate whether kaurane diterpene compounds obtained in Example 1 can inhibit effectively the production of tumor necrosis factor-α (TNF-α), one of the inflammatory mediator, which confers cytotoxic effect and induces the production of prostaglandin and cytokines, the present inventors measured the amount of TNF-α accumulated in the culture medium of LPS-stimulated murine macrophage cells, which were treated with four kaurane diterpene compounds, kamebanin, kamebacetal A, kamebakaurin, or exisanin A.
In detail, Raw 264.7 cells in DMEM medium were seeded to a 96-well plate at a cell density of 1×10^5 cells/well and were incubated for 3 hours at 37° C. in a 5% CO2 incubator. To each well were added 1 μg/ml of LPS and 3 μg/ml, 0.3 μg/ml, and 0.03 μg/ml concentrations of kaurane diterpene compounds of the present invention and was incubated for 16 hours. After collecting supernatant by centrifugation, the amount of TNF-α in the culture medium was quantified by enzyme immunometric assay.

[1] = Mus musculus, RAW264.7, LPS-stimulated Raw 264.7 cells

IC50 (TNF-α; [1]): 0.53 µM
Compound: C=C1C(=O)[C@@]23[C@H](O)C[C@@H]4C(C)(C)CC[C@H](O)[C@@]4(CO)[C@@H]2CC[C@@H]1[C@H]3O [Kamebakaurin, kamebakaurin]
Expression of iNOS mRNA (iNOS mRNA): completely suppressed
Expression of Bax (Bax): not inhibited
Expression of iNOS protein (iNOS protein; 3 μg/ml): completely suppressed
Expression of iNOS protein (iNOS protein; 0.1-3 μg/ml): suppressed dose-dependently
NO (nitric oxide (NO); 0.03 μg/ml compound): 29.1 ± 4.2 µM
NO (nitric oxide (NO); 0.3 μg/ml compound): 16.1 ± 2.8 µM
NO (nitric oxide (NO); 3 μg/ml compound): 3.6 ± 0.7 µM
inhibition at 0.03 µg/mL (nitric oxide (NO); Mus musculus, RAW264.7, 0.03 μg/ml compound, read-out: Inhibition rate (%) of NO production): 44.2%
inhibition at 0.3 µg/mL (nitric oxide (NO); Mus musculus, RAW264.7, 0.3 μg/ml compound, read-out: Inhibition rate (%) of NO production): 72.4%
inhibition at 3 µg/mL (nitric oxide (NO); Mus musculus, RAW264.7, 3 μg/ml compound, read-out: Inhibition rate (%) of NO production): 99.3%
IC50 (nitric oxide (NO); [1]): 0.15 µM
Expression of COX mRNA (COX-2 mRNA; 1 μg/ml): inhibited
Expression of COX-2 mRNA (COX-2 mRNA; 3 μg/ml, LPS 1 μg/ml, 6 hours): completely suppressed
TNF-α (TNF-α; 0.03 μg/ml compound): 1407.0 ± 255.6 pg/mL
TNF-α (TNF-α; 0.3 μg/ml compound): 654.4 ± 29.4 pg/mL
TNF-α (TNF-α; 3 μg/ml compound): 29.6 ± 5.3 pg/mL
inhibition at 0.03 µg/mL (TNF-α; Mus musculus, RAW264.7, 0.03 μg/ml compound, read-out: Inhibition rate (%) of TNF-α production): 15.9%
inhibition at 0.3 µg/mL (TNF-α; Mus musculus, RAW264.7, 0.3 μg/ml compound, read-out: Inhibition rate (%) of TNF-α production): 61.3%
inhibition at 3 µg/mL (TNF-α; Mus musculus, RAW264.7, 3 μg/ml compound, read-out: Inhibition rate (%) of TNF-α production): 99.2%
